Experimental data reported in patent US20260318831A1 (University of Cincinnati, priority 2023, published 2026).

Tests used:
[1] = Photostability under irradiation in neutral and acidic solutions; format: physicochemical; conditions: 300 s irradiation
Excerpt: (§1) Next, the effect of potential biochemical species on the fluorescence intensity of PyQPMe in both pH 3.0 and 8.2 buffer solutions was investigated. […] Fluorescence spectra of PyQPMe in various solvents with different polarities were also obtained. […] Furthermore, the photostability of PyQPMe was investigated under different pH conditions. […] Taken together, the above photophysical results identify that PyQPMe is a pH-sensitive probe, well suited for studying endolysosome dynamics via high-resolution imaging techniques.

[2] = n-octanol/water partition coefficient by shake-flask ultraviolet spectrophotometry; format: physicochemical; conditions: room temperature, read-out: n-octanol/water partition coefficient (Log P)
Method: The measurements of hydrophilicity. Hydrophilicity was determined by a shake-flask ultraviolet spectrophotometry method to measure the n-octanol/water partition coefficients (Log P). First, 25 mL of n-octanol and 25 mL of water were mixed at room temperature. After 24 h, the standard solutions of the sample (10 μM) were prepared by using the preceding saturated n-octanol phase and water phase solution, respectively. Later, the test solutions were prepared by mixing 10 ml of standard solution in n-octanol and 10 ml of standard solution in water. After shaking, the mixture of test solution was centrifuged for 5 min. The n-octanol phase layer was separated from the water phase layer and the absorbance of the two layers was measured by Agilent Cary 8453 spectrophotometer. Based on the Beer-Lambert law, the concentrations of the sample in the n-octanol phase (Co) and the water phase (Cw) were calculated. Finally, the n-octanol/water partition coefficients (Log P) were further calculated by using the following equation: […]

[3] = UV-visible absorption of PyQPMe in aqueous buffers pH 4.0-8.0; format: physicochemical
Excerpt: (§2) In some aspects, the fluorescence of the probe changes as the pH of an endolysosome changes, such as between a pH range of about 8.0 to about 2.0. With the designed probe PyQPMe in hand, its UV-visible absorption was screened in aqueous buffers with a pH range of 8.0 to 4.0. […] Simultaneously, a new absorption maximum at 447 nm (ε=27,264 M^−1 cm^−1) rises with its tail exceeding 600 nm in pH 4.0 buffer solution. […] In addition, the fluorescence intensities of PyQPMe used for different imaging channels of the microscope were compared, where the wavelengths of 500 nm and 645 nm represent the green and red channels, respectively. When the buffer solution is much more acidic, the fluorescence intensity ratio of I645 nm/I500 nm is higher than 1 (FIG. 2C), indicating red color dominates the fluorescence of PyQPMe. Conversely, with increasing the pH value, green fluorescence light is becoming the predominant color for imaging.
(§3) Phosphate buffer solution. A series of standard pH buffer solutions were prepared by mixing 0.2 M Na2HPO4·7H2O, 0.2 M KH2PO4, and 0.2 M H3PO4 with varied volume ratios, and the pH values were measured by using a Mettler Toledo pH-meter.
(§4) Absorption and emission measurements. 3.0 mL phosphate buffer solution and 6.44 μL probe stock solution (4.66 mM) were mixed well, and an appropriate portion of the solution was transferred to a quartz cell with 1 cm optical length to collect the absorption spectra on an Agilent Cary 453 spectrophotometer. The fluorescence spectra were recorded on a HORIBA Fluorolog QM spectrofluorometer.

HeLa cells [4] = assay: CCK-8 cell viability and cytotoxicity assay; format: cell-based; conditions: within 24 h incubation, 0~10 μM
Method: (§5) In some aspects, the probes of the present disclosure can be administered to living cells, either in vitro or in vivo. To take advantage of the absorption and emission spectra of PyQPMe, this probe was administered in high-resolution microscopy for living cells. The toxicity of PyQPMe was examined at first before characterizing its imaging properties. Cell Counting Kit-8 (CCK-8) was used to investigate the viability of HeLa cells stained with PyQPMe. […] Next, PyQPMe was characterized by Leica Stellaris Confocal Microscope in the LIGHTNING module for high-resolution imaging. […] The signal tended to be endolysosomes because endolysosomes have a low pH range from 4.7 to 6.3. […] Since low temperatures can inhibit endocytosis, experiments at a lower temperature were performed.
Cell viability and cytotoxicity assay. […] The viability was determined by adding 10 μL reagent from a cell counting kit-8 (CCK-8) (Dojindo Molecular Technologies, Inc.) and incubating at 37° C. for 1 h. CCK-8 solution was added to each well and the OD value for each well was read at wavelength 490 nm on a microplate reader (BioTek Instruments, Inc., USA). The interference of absorbance from PyQPMe at 490 nm was minimal compared to the CCK-8 reagent during measurement.

[5] = Fluorescence emission of PyQPMe in buffer solutions with different pH; format: physicochemical
Excerpt: as §2, §1, §3, §4
Fluorescence reversibility of PyQPMe. The pH of a PyQPMe solution between pH 3.0 and pH 8.5 was adjusted back and forth by adding 2.0 M KOH or 3.0 M HCl, which was monitored by a Mettler Toledo pH meter.

[6] = Effect of potential biochemical species on fluorescence intensity; format: physicochemical; conditions: pH 3.0 or 8.2; cations, anions, H2O2, Cys, Hcy, GSH
Excerpt: as §1

HeLa cells [7] = assay: Confocal imaging of PyQPMe uptake by endocytosis; format: cell-based
Method: as §5
Leica Stellaris 8 Confocal imaging. High-resolution images were acquired on a commercial Leica Stellaris 8 Confocal Microscope under LIGHTNING mode. Laser powers were set at 10% intensity for 405 nm and 640 nm channels. The objective was 63×/1.4. High-resolution images were captured from the randomly selected field of view and analyzed with Leica LAS X and ImageJ software. All the images were exported on the Auto scale of the Leica LAS X software. Cells were seeded on glassed-bottomed cell dishes (MatTek) for 24 hours. Cells stained with PyQPMe (20 nM, 10 min) were treated with Wortmannin (1 μM, 24 h), CCCP ([…], 24 h), rapamycin (0.5 μM, 24 h), chloroquine (25 μM, 30 min), and NH4Cl (50 mM, 30 min). All PCC values were analyzed in the CellProfiler.

For `CN1CCN(c2ccc(/C=C/c3ccc4cc(-c5ccncc5)ccc4[n+]3C)cc2)CC1` [PyQPMe, (E)-1-methyl-2-(4-(4-methylpiperazin-1-yl)styryl)-6-(pyridin-4-yl)quinolin-1-ium], the “photostability: change of fluorescence intensity” value [1] was “negligible change”, the logP at 10 µM [2] was roughly -0.65 and the pKa ([3]; aqueous buffers, from absorption at 394 and 447 nm, pH 8.0 to 4.0, read-out: apparent pKa value) was roughly 5. The absorption maximum ([3]; neutral condition) was 394 nm, the “ε at absorption maximum 394 nm” value ([3]; neutral condition) was 34,147 M^−1cm^−1 and the new absorption maximum ([3]; pH 4.0 buffer solution) was 447 nm. The “ε at absorption maximum 447 nm” value ([3]; pH 4.0 buffer solution) was 27,264 M^−1 cm^−1, the “effect on viability of HeLa cells” value (HeLa cells [4]) was “no effects on the viability of HeLa cells” and the maximum emission peak ([5]; 405 nm excitation, neutral solution) was 510 nm. For the same compound, the new emission peak ([5]; 405 nm excitation, pH decreased from 8.0 to 4.0) was 650 nm, the Stokes shift ([5]; acid solution) was “greater than 200 nm” and the “reversibility of emission spectra” value ([5]; between pH 8.5 and pH 3.0) was “excellent reversibility”. The “cut-off pH for the red to green fluorescence intensity ratio” value ([5]; from FIG. 2C) was 5-6, the “fluorescence intensity ratio I645 nm/I500 nm” value ([5]; much more acidic buffer solution) was “higher than 1” and the quantum yield ([5]; pH 4.0 buffer solution) was 0.23%. The “fluorescence over pH window” value ([5]; pH 8.0 to 4.0) was “remains fluorescent within the entire pH window”, the “red shift of emission” value ([5]; pH decreased from 8.0 to 4.0) was 140 nm and the “emission intensity ratio I510 nm/I650 nm against pH” value ([5]; pH titration curve) was “decent linear relationship”. The “effect of solvent polarity on fluorescence” value ([5]; various solvents with different polarities) was “polarity has no effect on the fluorescence”, the “effect of interfering substances on emission intensity” value [6] was “none of these interfering substances could quench the emission intensity” and the “fluorescence signal inside HeLa cells at high concentration” value (HeLa cells [7]; 2 μM PyQPMe) was “same fluorescence signal inside HeLa cells could be observed”. The “endolysosomes detected at low temperature” value (HeLa cells [7]; 4° C. vs 37° C.) was “Fewer endolysosomes were detected” and the “fluorescence in HeLa cells” value (HeLa cells [7]; 405 nm excitation, 10 min incubation) was “punctate fluorescence signals in the cytoplasm”.
